# From US20100331348A1, “TROPANE DERIVATIVES USEFUL AS PESTICIDES” (SYNGENTA CROP PROTECTION, INC., priority 2007, published 2010)
# Test system: Erysiphe graminis f.sp. tritici
# Test: Erysiphe graminis f.sp. tritici (wheat powdery mildew) leaf disk assay
# Type: in vivo
# Details: Blumeria graminis, foliar, 96 h, preventive, four days after inoculation, read-out: control of fungal infection, Erysiphe graminis fsp. tritici
row,Structure (SMILES),pest or weed control at 200 ppm [%]
1,COc1cc(OC2C[C@H]3CC[C@@H](C2)N3c2ncnc3sccc23)cc(OC)c1OC (stereo partly drawn) [Example 1.13],≥ 80
2,Cc1ccc(-c2nc(Cl)c(C)c(OC3C[C@H]4CC[C@@H](C3)N4c3ncnc4sccc34)n2)cc1 (stereo partly drawn) [Example 1.97],≥ 80
3,CCCCCCOc1ccc(OC2C[C@H]3CC[C@@H](C2)N3c2ncnc(CC)c2Cl)cc1 (stereo partly drawn) [Example 1.140],≥ 80
4,CCc1ncnc(N2[C@@H]3CC[C@H]2CC(Oc2ccc(C)cc2)C3)c1Cl (stereo partly drawn) [Example 1.162],≥ 80
5,CCc1ncnc(N2[C@@H]3CC[C@H]2CC(Oc2ccc(Br)cc2C)C3)c1Cl (stereo partly drawn) [Example 1.180],≥ 80
6,CCc1ncnc(N2[C@@H]3CC[C@H]2CC(Oc2cc(Cl)c(Cl)cc2Cl)C3)c1Cl (stereo partly drawn) [Example 1.196],≥ 80
7,CCc1ncnc(N2[C@@H]3CC[C@H]2CC(Oc2ccc(C(C)(C)C)cc2C(C)(C)C)C3)c1Cl (stereo partly drawn) [Example 1.221],≥ 80
8,COc1ccccc1OC1C[C@H]2CC[C@@H](C1)N2c1ncnc2sccc12 (stereo partly drawn) [Example 2.4],≥ 80
9,c1cc(OC2C[C@H]3CC[C@@H](C2)N3c2ncnc3sccc23)ccn1 (stereo partly drawn) [Example 2.7],≥ 80
10,Cc1ccc(OC2C[C@H]3CC[C@@H](C2)N3c2ncnc3sccc23)cc1 (stereo partly drawn) [Example 2.8],≥ 80
11,Fc1ccc(OC2C[C@H]3CC[C@@H](C2)N3c2ncnc3sccc23)cc1 (stereo partly drawn) [Example 2.11],≥ 80
12,Clc1ccc(Oc2cccc(OC3C[C@H]4CC[C@@H](C3)N4c3ncnc4sccc34)c2)cc1 (stereo partly drawn) [Example 2.15],≥ 80
13,COc1ccc(OC2C[C@H]3CC[C@@H](C2)N3c2ncnc3sccc23)c(Cl)c1 (stereo partly drawn) [Example 2.16],≥ 80
14,N#Cc1ccc(OC2C[C@H]3CC[C@@H](C2)N3c2ncnc3sccc23)cc1 (stereo partly drawn) [Example 2.22],≥ 80
15,Fc1cccc(OC2C[C@H]3CC[C@@H](C2)N3c2ncnc3sccc23)c1F (stereo partly drawn) [Example 2.24],≥ 80
16,CC(C)(C)c1ccc(OC2C[C@H]3CC[C@@H](C2)N3c2ncnc3sccc23)cc1 (stereo partly drawn) [Example 2.26],≥ 80
17,c1nc(C2C[C@H]3CC[C@@H](C2)N3c2ncnc3sccc23)c2ccsc2n1 (stereo partly drawn) [Example 2.28],≥ 80
18,CC(C)(C)CC(C)(C)c1ccc(OC2C[C@H]3CC[C@@H](C2)N3c2ncnc3sccc23)cc1 (stereo partly drawn) [Example 2.35],≥ 80
19,Fc1c(F)c(F)c(OC2C[C@H]3CC[C@@H](C2)N3c2ncnc3sccc23)c(F)c1F (stereo partly drawn) [Example 2.38],≥ 80
20,CSc1ccc(OC2C[C@H]3CC[C@@H](C2)N3c2ncnc3sccc23)cc1C (stereo partly drawn) [Example 2.41],≥ 80
21,Cc1ccc(C(C)(C)C)c(OC2C[C@H]3CC[C@@H](C2)N3c2ncnc3sccc23)c1 (stereo partly drawn) [Example 2.43],≥ 80
22,CC(C)(C)c1ccc(OC2C[C@H]3CC[C@@H](C2)N3c2ncnc3sccc23)c(C(C)(C)C)c1 (stereo partly drawn) [Example 2.45],≥ 80
23,CCC(C)c1cccc(C(C)CC)c1OC1C[C@H]2CC[C@@H](C1)N2c1ncnc2sccc12 (stereo partly drawn) [Example 2.46],≥ 80
24,Cc1ccc(-c2c(C)cccc2C)c(C)c1OC1C[C@H]2CC[C@@H](C1)N2c1ncnc2sccc12 (stereo partly drawn) [Example 2.49],≥ 80

row,Structure (SMILES),pest or weed control at 200 ppm [%]
1,c1ccc2c(c1)CCC2c1ccc(OC2C[C@H]3CC[C@@H](C2)N3c2ncnc3sccc23)cc1 (stereo partly drawn) [Example 2.53],≥ 80
2,CC(=O)c1cc(Cl)c2ccccc2c1OC1C[C@H]2CC[C@@H](C1)N2c1ncnc2sccc12 (stereo partly drawn) [Example 2.59],≥ 80
3,c1ccc(-c2nnco2)c(OC2C[C@H]3CC[C@@H](C2)N3c2ncnc3sccc23)c1 (stereo partly drawn) [Example 2.68],≥ 80
4,Cc1nsc(Oc2ccc(OC3C[C@H]4CC[C@@H](C3)N4c3ncnc4scc(C)c34)cc2)n1 (stereo partly drawn) [Example 2.72],≥ 80
5,CCc1ncnc(N2[C@@H]3CC[C@H]2CC(Oc2cccc(Oc4nc(C)ns4)c2)C3)c1Cl (stereo partly drawn) [Example 2.89],≥ 80
6,CCc1ncnc(N2[C@@H]3CC[C@H]2CC(Oc2ccc(Oc4nc(C)ns4)cc2)C3)c1Cl (stereo partly drawn) [Example 2.91],≥ 80
7,Cc1c(Cl)ncnc1N1[C@@H]2CC[C@H]1CC(Oc1cccc(C(F)(F)F)n1)C2 (stereo partly drawn) [Example 2.94],≥ 80
8,CCc1ncnc(N2[C@@H]3CC[C@H]2CC(Oc2cccc(F)c2)C3)c1Cl (stereo partly drawn) [Example 2.117],≥ 80
9,CCc1ncnc(N2[C@@H]3CC[C@H]2CC(Oc2ccc(F)c(F)c2)C3)c1Cl (stereo partly drawn) [Example 2.125],≥ 80
10,CCOc1cc(C)ccc1OC1C[C@H]2CC[C@@H](C1)N2c1ncnc(CC)c1Cl (stereo partly drawn) [Example 2.126],≥ 80
11,CCc1ncnc(N2[C@@H]3CC[C@H]2CC(Oc2ccc(C(C)(C)c4ccc(O)cc4)cc2)C3)c1Cl (stereo partly drawn) [Example 2.131],≥ 80
12,CCc1ncnc(N2[C@@H]3CC[C@H]2CC(Oc2ccc(C(=O)c4ccccc4)cc2)C3)c1Cl (stereo partly drawn) [Example 2.141],≥ 80
13,CCc1ncnc(N2[C@@H]3CC[C@H]2CC(Oc2ccc(OC)cc2Cl)C3)c1Cl (stereo partly drawn) [Example 2.142],≥ 80
14,CCc1ncnc(N2[C@@H]3CC[C@H]2CC(Oc2ccccc2C(F)(F)F)C3)c1Cl (stereo partly drawn) [Example 2.146],≥ 80
15,CCc1ncnc(N2[C@@H]3CC[C@H]2CC(Oc2cccc(C(F)(F)F)c2F)C3)c1Cl (stereo partly drawn) [Example 2.148],≥ 80
16,COCc1ncnc(N2[C@@H]3CC[C@H]2CC(Oc2cc(C(F)(F)F)ccn2)C3)c1OC (stereo partly drawn) [Example 2.152],≥ 80
17,CCc1ncnc(N2[C@@H]3CC[C@H]2CC(Oc2ccc(C4CCc5ccccc54)cc2)C3)c1Cl (stereo partly drawn) [Example 2.173],≥ 80
18,CCc1ncnc(N2[C@@H]3CC[C@H]2CC(Oc2ccc(Br)cc2C(C)=O)C3)c1Cl (stereo partly drawn) [Example 2.182],≥ 80
19,CCc1ncnc(N2[C@@H]3CC[C@H]2CC(Oc2c(C(C)=O)cc(Cl)c4ccccc24)C3)c1Cl (stereo partly drawn) [Example 2.187],≥ 80
20,CCc1ncnc(N2[C@@H]3CC[C@H]2CC(Oc2ccccc2-c2nnc(C(C)(C)C)o2)C3)c1Cl (stereo partly drawn) [Example 2.190],≥ 80
21,FC(F)(F)c1ccnc(OC2C[C@H]3CC[C@@H](C2)N3c2ccnc3cc(Cl)ccc23)c1 (stereo partly drawn) [Example 2.192],≥ 80
22,Cc1nsc(N2[C@@H]3CC[C@H]2CC(Oc2ccc(C(F)(F)F)cn2)C3)n1 (stereo partly drawn) [Example 2.203],≥ 80
23,CCC(=O)c1cc(F)c(OC2C[C@H]3CC[C@@H](C2)N3c2ncnc(CC)c2Cl)c(F)c1 (stereo partly drawn) [Example 2.207],≥ 80
24,Cn1nc(C(F)(F)F)c(Cl)c1C(=O)N1[C@@H]2CC[C@H]1CC(Oc1cc(C(F)(F)F)ccn1)C2 (stereo partly drawn) [Example 2.220],≥ 80

row,Structure (SMILES),pest or weed control at 200 ppm [%]
1,CCc1ncnc(N2C3CCC2CC(=NOCc2c4ccccc4cc4ccccc24)C3)c1Cl [Example 5.9],≥ 80
2,CCc1ncnc(N2C3CCC2CC(=NOCc2ccc(C(C)(C)C)cc2)C3)c1Cl [Example 5.26],≥ 80
3,CCc1ncnc(N2C3CCC2CC(=NOCc2ccccc2CCl)C3)c1Cl [Example 5.42],≥ 80
4,C#CCON=C1CC2CCC(C1)N2c1ncnc(C(C)c2ncnc(CC)c2Cl)c1Cl (stereo not drawn) [Example 5.49],≥ 80
5,CCc1ncnc(N2C3CCC2CC(=NOCc2ccc(Cl)c(Cl)c2)C3)c1Cl [Example 5.52],≥ 80
6,CCc1ncnc(N2C3CCC2CC(=NOCc2cc(Br)cc(Br)c2)C3)c1Cl [Example 5.53],≥ 80
7,CCc1ncnc(N2C3CCC2CC(=NOCc2cc(Cl)ccc2Cl)C3)c1Cl [Example 5.62],≥ 80
8,CCc1ncnc(N2C3CCC2CC(=NOc2cc(Cl)nc(Cl)n2)C3)c1Cl [Example 5.71],≥ 80
9,CCc1ncnc(N2C3CCC2CC(=NOc2nc(N(C)C)cc(C(F)(F)F)n2)C3)c1Cl [Example 5.72],≥ 80
10,CCc1ncnc(N2C3CCC2CC(=NOCc2cccc(OC(F)(F)F)c2)C3)c1Cl [Example 5.75],≥ 80
11,CCc1ncnc(C(C)c2ncnc(N3C4CCC3CC(=NOCc3ccccc3)C4)c2Cl)c1Cl (stereo not drawn) [Example 5.77],≥ 80
12,CCc1ncnc(N2C3CCC2CC(=NOc2cc(C)nc(SC)n2)C3)c1Cl [Example 5.94],≥ 80
13,CCc1ncnc(N2C3CCC2CC(=NOCc2cc(F)cc(C(F)(F)F)c2)C3)c1Cl [Example 5.96],≥ 80
14,CCc1ncnc(N2C3CCC2CC(=NOc2cc(OC)nc(OC)n2)C3)c1Cl [Example 5.97],≥ 80
15,CCc1ncnc(N2C3CCC2CC(=NOCc2cc(F)ccc2C(F)(F)F)C3)c1Cl [Example 5.101],≥ 80
16,CCc1ncnc(C(C)c2ncnc(N3C4CCC3CC(=NOCc3ccc(F)cc3)C4)c2Cl)c1Cl (stereo not drawn) [Example 5.102],≥ 80
17,CCc1ncnc(N2C3CCC2CC(=NOCc2cc(F)c(F)c(C(F)(F)F)c2)C3)c1Cl [Example 5.103],≥ 80
18,CCc1ncnc(N2C3CCC2CC(=NOc2cc(Oc4ccccc4)ncn2)C3)c1Cl [Example 5.108],≥ 80
19,CCc1ncnc(N2C3CCC2CC(=NOc2nc(SC)nc(Cl)c2-c2ccccc2)C3)c1Cl [Example 5.125],≥ 80
20,ON=C1CC2CCC(C1)N2c1ncnc2sccc12 [Example 5.127],≥ 80
21,CN(C)c1cc(C(F)(F)F)nc(ON=C2CC3CCC(C2)N3c2ncnc3sccc23)n1 [Example 5.130],≥ 80
22,Cc1cc(Cl)nc(CON=C2CC3CCC(C2)N3c2ncnc3sccc23)n1 [Example 5.132],≥ 80
23,c1cncc(CON=C2CC3CCC(C2)N3c2ncnc3sccc23)c1 [Example 5.133],≥ 80
24,CCc1nc(Cl)c(C)c(ON=C2CC3CCC(C2)N3c2ncnc3sccc23)n1 [Example 5.171],≥ 80
